Measurements as given in ChEMBL document CHEMBL3045068, “Effect of methomyl and oxamyl soil applications on early control of nematodes and insects” (Pest Manag Sci, 2011).
Values after ≈ are worked out from the molar mass of the structure shown.

How the values were obtained:
Phaseolus lunatus [1] = experiment: Phytotoxicity in Phaseolus lunatus (lima bean) root assessed as root dry weight at 2.24 kg ai/ha applied to soil measured up to 7 days under green house conditions (reference value: 0.36 +/- 0.071 g); assay type: organism-based; conditions: in vivo, other, 168 h
Phaseolus lunatus [2] = experiment: Phytotoxicity in Phaseolus lunatus (lima bean) root assessed as root dry weight at 1.12 kg ai/ha applied to soil measured up to 7 days under green house conditions (reference value: 0.36 +/- 0.071 g); assay type: organism-based; conditions: in vivo, other, 168 h
Phaseolus lunatus [3] = experiment: Phytotoxicity in Phaseolus lunatus (lima bean) plant assessed as plant dry weight at 2.24 kg ai/ha applied to soil measured up to 7 days under green house conditions (reference value: 1.20 +/- 0.21 g); assay type: organism-based; conditions: in vivo, other, 168 h
Meloidogyne incognita [4] = experiment: Nematicidal activity against second juvenile stage of Meloidogyne incognita (root-knot nematode) infected lima bean plant assessed as reduction in root gall index at 1.12 kg ai/ha applied to soil measured during planting under green house conditions (reference value: 7 +/- 0.27%); assay type: functional
Meloidogyne incognita [5] = experiment: Nematicidal activity against second juvenile stage of Meloidogyne incognita (root-knot nematode) infected lima bean plant assessed as reduction in root gall index at 0.56 kg ai/ha applied to soil measured during planting under green house conditions (reference value: 7 +/- 0.27%); assay type: functional
Meloidogyne incognita [6] = experiment: Nematicidal activity against second juvenile stage of Meloidogyne incognita (root-knot nematode) infected lima bean plant assessed as shoot dry weight at 1.12 kg ai/ha applied to soil measured during planting under green house conditions (reference value: 1.84 +/- 0.18 g); assay type: functional
Meloidogyne incognita [7] = experiment: Nematicidal activity against second juvenile stage of Meloidogyne incognita (root-knot nematode) infected lima bean plant assessed as shoot dry weight at 0.56 kg ai/ha applied to soil measured during planting under green house conditions (reference value: 1.84 +/- 0.18 g); assay type: functional
Meloidogyne incognita [8] = experiment: Nematicidal activity against second juvenile stage of Meloidogyne incognita (root-knot nematode) infected pea plant assessed as plant fresh weight at 1.68 kg ai/ha applied to soil measured up to 7 days post planting under green house conditions (reference value: 4.3 +/- 0.56 g); assay type: functional
Meloidogyne incognita [9] = experiment: Nematicidal activity against second juvenile stage of Meloidogyne incognita (root-knot nematode) infected pea plant assessed as plant fresh weight at 1.12 kg ai/ha applied to soil measured up to 7 days post planting under green house conditions (reference value: 4.3 +/- 0.56 g); assay type: functional
Meloidogyne incognita [10] = experiment: Nematicidal activity against second juvenile stage of Meloidogyne incognita (root-knot nematode) infected pea plant assessed as plant fresh weight at 0.56 kg ai/ha applied to soil under green house conditions (reference value: 4.3 +/- 0.56 g); assay type: functional
Meloidogyne incognita [11] = experiment: Nematicidal activity against second juvenile stage of Meloidogyne incognita (root-knot nematode) infected pea plant assessed as reduction in root gall index at 1.68 kg ai/ha applied to soil measured up to 14 days post planting under green house conditions (reference value: 9.7 +/- 0.30%); assay type: functional
Meloidogyne incognita [12] = experiment: Nematicidal activity against second juvenile stage of Meloidogyne incognita (root-knot nematode) infected pea plant assessed as reduction in root gall index at 1.12 kg ai/ha applied to soil measured up to 7 days post planting under green house conditions (reference value: 9.7 +/- 0.30%); assay type: functional
Meloidogyne incognita [13] = experiment: Nematicidal activity against second juvenile stage of Meloidogyne incognita (root-knot nematode) infected pea plant assessed as reduction in root gall index at 0.56 kg ai/ha applied to soil under green house conditions (reference value: 9.7 +/- 0.30%); assay type: functional
Meloidogyne incognita [14] = experiment: Nematicidal activity against second juvenile stage of Meloidogyne incognita (root-knot nematode) infected pea plant assessed as root dry weight at 1.12 kg ai/ha applied to soil measured up to 7 days post planting under green house conditions (reference value: 0.25 +/- 0.041 g); assay type: functional
Meloidogyne incognita [15] = experiment: Nematicidal activity against second juvenile stage of Meloidogyne incognita (root-knot nematode) infected pea plant assessed as root dry weight at 0.56 kg ai/ha applied to soil under green house conditions (reference value: 0.25 +/- 0.041 g); assay type: functional
Meloidogyne incognita [16] = experiment: Nematicidal activity against second juvenile stage of Meloidogyne incognita (root-knot nematode) infected pea plant assessed as root fresh weight at 1.68 kg ai/ha applied to soil measured up to 14 days post planting under green house conditions (reference value: 1.83 +/- 0.3 g); assay type: functional
Meloidogyne incognita [17] = experiment: Nematicidal activity against second juvenile stage of Meloidogyne incognita (root-knot nematode) infected pea plant assessed as root fresh weight at 1.12 kg ai/ha applied to soil measured up to 7 days post planting under green house conditions (reference value: 1.83 +/- 0.3 g); assay type: functional
Meloidogyne incognita [18] = experiment: Nematicidal activity against second juvenile stage of Meloidogyne incognita (root-knot nematode) infected pea plant assessed as emergence at 0.56 kg ai/ha applied to soil under green house conditions (reference value: 75 +/- 13%); assay type: functional
Meloidogyne incognita [19] = experiment: Nematicidal activity against second juvenile stage of Meloidogyne incognita (root-knot nematode) infested soil containing cucumber seeds assessed as mortality applied post seed germination measured after 7 days under green house conditions; assay type: functional
Meloidogyne incognita [20] = experiment: Nematicidal activity against second juvenile stage of Meloidogyne incognita (root-knot nematode) assessed as mortality after 72 hr; assay type: functional
Meloidogyne incognita [21] = experiment: Nematicidal activity against second juvenile stage of Meloidogyne incognita (root-knot nematode) assessed as mortality after 48 hr; assay type: functional
Meloidogyne incognita [22] = experiment: Nematicidal activity against second juvenile stage of Meloidogyne incognita (root-knot nematode) infected pea plant assessed as emergence at 1.68 kg ai/ha applied to soil measured up to 14 days under green house conditions (reference value: 75 +/- 13%); assay type: functional
Meloidogyne incognita [23] = experiment: Nematicidal activity against second juvenile stage of Meloidogyne incognita (root-knot nematode) infected pea plant assessed as emergence at 1.12 kg ai/ha applied to soil measured up to 7 days under green house conditions (reference value: 75 +/- 13%); assay type: functional
Meloidogyne incognita [24] = experiment: Nematicidal activity against second juvenile stage of Meloidogyne incognita (root-knot nematode) infected pea plant assessed as root fresh weight at 0.56 kg ai/ha applied to soil under green house conditions (reference value: 1.83 +/- 0.3 g); assay type: functional
Phaseolus lunatus [25] = experiment: Phytotoxicity in Phaseolus lunatus (lima bean) plant assessed as plant dry weight at 1.12 kg ai/ha applied to soil measured up to 7 days under green house conditions (reference value: 1.20 +/- 0.21 g); assay type: organism-based; conditions: in vivo, other, 168 h
Phaseolus lunatus [26] = experiment: Phytotoxicity in Phaseolus lunatus (lima bean) plant assessed as emergence at 2.24 kg ai/ha applied to soil measured up to 7 days under green house conditions (reference value: 70 +/- 16%); assay type: organism-based; conditions: in vivo, other, 168 h
Phaseolus lunatus [27] = experiment: Phytotoxicity in Phaseolus lunatus (lima bean) plant assessed as emergence at 1.12 kg ai/ha applied to soil measured up to 7 days under green house conditions (reference value: 70 +/- 16%); assay type: organism-based; conditions: in vivo, other, 168 h
Meloidogyne incognita [28] = experiment: Nematicidal activity against second juvenile stage of Meloidogyne incognita (root-knot nematode) infected lima bean plant assessed as root dry weight at 1.12 kg ai/ha applied to soil measured during planting under green house conditions (reference value: 0.5 +/- 0.052 g); assay type: functional
Meloidogyne incognita [29] = experiment: Nematicidal activity against second juvenile stage of Meloidogyne incognita (root-knot nematode) infected lima bean plant assessed as root dry weight at 0.56 kg ai/ha applied to soil measured during planting under green house conditions (reference value: 0.5 +/- 0.052 g); assay type: functional
Meloidogyne incognita [30] = experiment: Nematicidal activity against second juvenile stage of Meloidogyne incognita (root-knot nematode) infected lima bean plant assessed as emergence at 1.12 kg ai/ha applied to soil measured during planting under green house conditions (reference value: 83 +/- 5%); assay type: functional
Meloidogyne incognita [31] = experiment: Nematicidal activity against second juvenile stage of Meloidogyne incognita (root-knot nematode) infected lima bean plant assessed as emergence at 0.56 kg ai/ha applied to soil measured during planting under green house conditions (reference value: 83 +/- 5%); assay type: functional
Meloidogyne incognita [32] = experiment: Nematicidal activity against second juvenile stage of Meloidogyne incognita (root-knot nematode) infected pea plant assessed as root dry weight at 1.68 kg ai/ha applied to soil measured up to 14 days post planting under green house conditions (reference value: 0.25 +/- 0.041 g); assay type: functional

Compound: CNC(=O)O/N=C(\SC)C(=O)N(C)C [OXAMYL]
- Activity (Phaseolus lunatus [1]): 0.6 g
- Activity (Phaseolus lunatus [2]): 0.35 g
- Activity (Phaseolus lunatus [3]): 1.79 g
- Root_galling_index (Meloidogyne incognita [4]): 0%
- Root_galling_index (Meloidogyne incognita [5]): 0%
- Activity (Meloidogyne incognita [6]): 1.49 g
- Activity (Meloidogyne incognita [7]): 1.09 g
- Activity (Meloidogyne incognita [8]): 7.1 g
- Activity (Meloidogyne incognita [9]): 6 g
- Activity (Meloidogyne incognita [10]): 4.4 g
- Root_galling_index (Meloidogyne incognita [11]): 0%
- Root_galling_index (Meloidogyne incognita [12]): 0%
- Root_galling_index (Meloidogyne incognita [13]): 0%
- Activity (Meloidogyne incognita [14]): 0.31 g
- Activity (Meloidogyne incognita [15]): 0.17 g
- Activity (Meloidogyne incognita [16]): 1.76 g
- Activity (Meloidogyne incognita [17]): 1.61 g
- Activity (Meloidogyne incognita [18]): 63%
- LC90 (Meloidogyne incognita [19]): 12 µg/mL (≈ 54.7 µM)
- LC50 (Meloidogyne incognita [19]; Meloidogyne incognita, Juvenile stage, 168 h): 2.8 µg/mL (≈ 12.8 µM)
- LC90 (Meloidogyne incognita [20]): 2.5 µg/mL (≈ 11.4 µM)
- LC50 (Meloidogyne incognita [20]; Meloidogyne incognita, Juvenile stage, 72 h): 1.7 µg/mL (≈ 7.75 µM)
- LC90 (Meloidogyne incognita [21]): 11.5 µg/mL (≈ 52.4 µM)
- LC50 (Meloidogyne incognita [21]; Meloidogyne incognita, Juvenile stage, 48 h): 4 µg/mL (≈ 18.2 µM)
- Activity (Meloidogyne incognita [22]): 75%
- Activity (Meloidogyne incognita [23]): 63%
- Activity (Meloidogyne incognita [24]): 1.36 g
- Activity (Phaseolus lunatus [25]): 1.48 g
- Activity (Phaseolus lunatus [26]): 70%
- Activity (Phaseolus lunatus [27]): 80%
- Activity (Meloidogyne incognita [28]): 0.41 g
- Activity (Meloidogyne incognita [29]): 0.31 g
- Activity (Meloidogyne incognita [30]): 100%
- Activity (Meloidogyne incognita [31]): 83%
- Activity (Meloidogyne incognita [32]): 0.29 g
